Values after ≈ are worked out from the molar mass of the structure shown.
Tests used:
[1] = system: Mycobacterium tuberculosis; experiment: Antitubercular activity against Mycobacterium tuberculosis H37Rv infected in mouse primary macrophages assessed as log reduction in bacterial growth at 10 uM measured after 48 hrs relative to control; type: functional, Primary macrophage
[2] = system: Mycobacterium tuberculosis; experiment: Antibiofilm activity against Mycobacterium tuberculosis assessed as log reduction in bacterial growth at 10 uM measured after 1 week relative to control; type: functional, H37Rv; settings: time 1 weeks
[3] = system: HEK293; experiment: Cytotoxicity against HEK293 cells assessed as reduction in cell viability measured after 48 hrs by MTT assay; type: cell-based; settings: Homo sapiens, HEK293, 48 h
[4] = system: Mycobacterium tuberculosis; experiment: Inhibition of N-terminal 6His-taggged Mycobacterium tuberculosis KARI expressed in Escherichia coli BL21 at 100 uM using 2-acetolactate as substrate preincubated for 30 mins followed by substrate addition in presence of NADPH relative to control
[5] = system: Mycobacterium tuberculosis; experiment: Antitubercular activity against early logarithmic phase cultures of Mycobacterium tuberculosis H37Rv treated for 6 days and measured 2 days post last dose; type: functional, organism-based; settings: time 8.0 day
[6] = Protection index, ratio IC50 for HEK293 cells to MIC for antitubercular activity against Mycobacterium tuberculosis H37Rv
[7] = system: Mycobacterium tuberculosis; experiment: Antitubercular activity against 6-weeks nutrient starved phase cultures of Mycobacterium tuberculosis H37Rv assessed as log reduction in bacterial growth at 10 uM treated for 7 days measured after 4 weeks relative to control; type: functional; settings: time 5 weeks
[8] = system: Mycobacterium tuberculosis; experiment: Antitubercular activity against Mycobacterium tuberculosis H37Rv measured after 1 week by microplate alamar blue assay; type: functional; settings: 168 h, time 1 weeks
[9] = Inhibition of N-terminal 6His-taggged Mycobacterium tuberculosis KARI expressed in Escherichia coli BL21 using 2-acetolactate as substrate preincubated for 30 mins followed by substrate addition in presence of NADPH
[10] = system: Mycobacterium tuberculosis; experiment: Antimycobacterial activity against dormant Mycobacterium tuberculosis H37Rv under nutrient deprived condition; type: functional, organism-based; settings: TDE = time-dependent effect
[11] = system: Mycobacterium tuberculosis; experiment: Antimycobacterial activity against dormant Mycobacterium tuberculosis H37Rv incubated for 7 days under nutrient deprived condition; type: functional, organism-based; settings: time 7.0 day
[12] = system: Mycobacterium tuberculosis; experiment: Antitubercular activity against early logarithmic phase cultures of Mycobacterium tuberculosis H37Rv at 1.56 to 100 uM; type: functional, organism-based; settings: dose 1.56-100 µM, TDE = time-dependent effect

SMILES	log(activity) [1]	log(activity) [2]	IC50 [3] [µM]	inhibition [4] [%]	Activity [5]	PI [6]	log(activity) [7]	MIC [8] [µM]	Ki [9] [µM]	Activity [10]	Activity [11]	Activity [12]
O=[N+]([O-])c1ccc(-c2nnc(NC(=S)Nc3ccc(F)cc3)s2)o1	1.9	1.3	72.5	> 50	Dose-dependent effect	92.9	2.3	0.78 (≈ 0.285 µg/mL)	5.48	–	–	–
NNC(=O)c1ccncc1 [ISONIAZID]	2.5	1	–	–	–	–	1.5	0.4 (≈ 0.0549 µg/mL)	–	–	–	–
O=[N+]([O-])c1ccc(-c2nnc(NC(=S)Nc3ccc(Cl)cc3)s2)s1	–	1.2	102	> 50	–	4.1	1	25 (≈ 9.95 µg/mL)	8.35	–	–	–
COc1ccc(NC(=O)Nc2nnc(-c3ccc([N+](=O)[O-])s3)s2)cc1	–	–	–	–	–	–	–	–	3.06	–	–	–
COc1ccc(NC(=S)Nc2nnc(-c3ccc([N+](=O)[O-])o3)s2)cc1	1.7	1.8	86	> 50	Dose-dependent effect	110.2	2.5	0.78 (≈ 0.294 µg/mL)	2.02	Tde	Dose-dependent effect	–
CC[C@@H](CO)NCCN[C@@H](CC)CO [ETHAMBUTOL]	–	–	–	–	–	–	–	7.63 (≈ 1.56 µg/mL)	–	–	–	–
CC(=O)c1ccc(S(=O)(=O)Nc2nnc(-c3ccc([N+](=O)[O-])o3)s2)cc1	1.6	1.1	57.1	> 50	–	36.6	2.1	1.56 (≈ 0.615 µg/mL)	4.72	Tde	Dose-dependent effect	Tde
COc1ccc(NC(=S)Nc2nnc(-c3ccc([N+](=O)[O-])s3)s2)cc1	2.2	1.5	68.2	> 50	–	87.4	1.8	0.78 (≈ 0.307 µg/mL)	9.27	–	–	–
COc1c(N2C[C@@H]3CCCN[C@@H]3C2)c(F)cc2c(=O)c(C(=O)O)cn(C3CC3)c12 [MOXIFLOXACIN]	–	1.8	–	–	–	–	2	–	–	–	–	–
CO[C@H]1/C=C/O[C@@]2(C)Oc3c(C)c(O)c4c(O)c(c(/C=N/N5CCN(C)CC5)c(O)c4c3C2=O)NC(=O)/C(C)=C\C=C\[C@H](C)[C@H](O)[C@@H](C)[C@@H](O)[C@@H](C)[C@H](OC(C)=O)[C@@H]1C [RIFAMPIN]	–	0.9	–	–	–	–	1.8	0.5 (≈ 0.411 µg/mL)	–	–	–	–

Reference: ChEMBL document CHEMBL4680225, “Design and development of ((4-methoxyphenyl)carbamoyl) (5-(5-nitrothiophen-2-yl)-1,3,4-thiadiazol-2-yl)amide analogues as Mycobacterium tuberculosis ketol-acid reductoisomerase inhibitors” (Eur J Med Chem, 2020)
